# Measured values published in PMC3504484 (Journal of Medicinal Chemistry, 2012).
# Like-named read-outs stand apart in the source and are kept apart here.
# Legend:
# 5-HT3A receptor = biological target: T1, 5-HT3A receptor (Homo sapiens, UniProt P46098); format: binding
# T1 sequence (P46098 24-478): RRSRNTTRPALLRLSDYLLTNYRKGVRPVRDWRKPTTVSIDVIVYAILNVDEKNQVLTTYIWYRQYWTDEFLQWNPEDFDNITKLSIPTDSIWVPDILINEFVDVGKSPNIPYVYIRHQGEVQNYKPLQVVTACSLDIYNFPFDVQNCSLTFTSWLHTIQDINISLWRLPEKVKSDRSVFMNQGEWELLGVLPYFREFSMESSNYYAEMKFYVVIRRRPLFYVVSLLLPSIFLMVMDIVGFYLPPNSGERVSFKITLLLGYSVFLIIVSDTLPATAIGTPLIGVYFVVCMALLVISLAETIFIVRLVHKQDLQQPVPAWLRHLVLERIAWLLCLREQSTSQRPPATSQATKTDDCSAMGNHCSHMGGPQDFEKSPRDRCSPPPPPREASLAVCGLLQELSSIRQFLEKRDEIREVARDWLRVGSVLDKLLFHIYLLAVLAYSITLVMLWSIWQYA
# Glycine = test: single point radioligand competition binding; set-up: species or system rat; conditions: 0.1 µM
# [1] = compared to parent isoquinoline compound 52
# [2] = compared to quinoline compound 51
smiles,measurement,setting,value
CN1CCN(c2nc(N)c3ccccc3n2)CC1 [Compound 22],selectivity for the 5-HT3A receptor over the H4R,5-HT3A receptor; H4R affinity from ref 35,~40 000 fold
same,% inhibition of control specific binding ± s.e.m.,Glycine,<15%
"CN1CCN(c2cc3ccccc3c(N)n2)CC1 [Compound 39, 3-(4-Methylpiperazin-1-yl)isoquinolin-1-amine]",fold lower affinity,5-HT3A receptor; [1],140 fold
"CN1CCN(c2ccc3c(N)cccc3n2)CC1 [Compound 46, 2-(4-Methylpiperazin-1-yl)quinolin-5-amine]",fold drop in affinity,5-HT3A receptor; compared to compound 30,~100 fold
same,fold drop in affinity,5-HT3A receptor; [2],~1000 fold
CN1CCN(c2nc(N)c3cc(Cl)ccc3n2)CC1 [Compound 12],fold reduction in affinity,5-HT3A receptor,~10 fold
"CNc1nc(N2CCN(C)CC2)cc2ccccc12 [Compound 40, N-Methyl-3-(4-methylpiperazin-1-yl)isoquinolin-1-amine]",fold lower affinity,5-HT3A receptor; [1],~5 fold
"CN1CCN(c2ncc3cc(Cl)ccc3n2)CC1 [Compound 11, 6-Chloro-2-(4-methylpiperazin-1-yl)quinazoline]",fold reduction in affinity,5-HT3A receptor; compared to compound 6,~10 fold
CN1CCN(c2nc(O)c3cc(Cl)ccc3n2)CC1 [Compound 48],fold reduction in affinity,5-HT3A receptor,~500 fold
"CN1CCN(c2cnc3ccccc3c2)CC1 [Compound 35, 3-(4-Methylpiperazin-1-yl)quinoline]",fold drop in affinity,5-HT3A receptor; compared to (iso)quinolines 51 and 52,> 250 fold
CNc1nc(N2CCN(C)CC2)nc2ccc(Cl)cc12 [Compound 6],fold increase in affinity,5-HT3A receptor; compared to compound 1,16 fold
CN1CCN(c2cnc3ccccc3n2)CC1 [Compound 50],fold lower affinity,"5-HT3A receptor; compared to compounds 49, 51 and 52",3–10 fold
CN1CCN(c2nc(N(C)C)c3cc(Cl)ccc3n2)CC1 [Compound 13],fold reduction in affinity,5-HT3A receptor; compared to compound 6,~10 fold
"CNc1nc(N2CCN(C)CC2)nc2ccccc12 [Compound 21, N-Methyl-2-(4-methylpiperazin-1-yl)quinazolin-4-amine]",fold reduction in affinity,5-HT3A receptor; compared to compound 6,~5 fold
"CNc1cc(N2CCN(C)CC2)nc2ccccc12 [Compound 31, N-Methyl-2-(4-methylpiperazin-1-yl)quinolin-4-amine]",fold drop in affinity,5-HT3A receptor; [2],~30 fold
